# From PubChem BioAssay AID1259411 (Chemical Carcinogenesis Research Information System (CCRIS), 2018)
# The source made the active and inactive calls. No rule for the calls is given here.
# Tested on: rodent carcinogenicity bioassays, tumor incidence
# Experiment: CCRIS carcinogenicity studies
# How it was run: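 NCI-built, expert-reviewed records of carcinogenicity and related test outcomes (mutagenicity, tumor promotion/inhibition) compiled from published and report sources, historical span 1985-2011, not updated.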
smiles,measurement,setting,value
O=[N+]([O-])c1ccc2ccc3c([N+](=O)[O-])ccc4ccc1c2c43,carcinogen call,"Species: HAMSTER, Strain/Sex: SYRIAN/FEMALE, Route: INTRATRACHEAL, Dose: 0, 0.5 MG IN 0.2 ML OF SALINE 1/WK FOR 26 WK (STUDY DURATION: 48 WK), Tumor Site: Type of Lesion: LUNG: ADENOCARCINOMA, HEMATOPOIETIC SYSTEM: LEUKEMIA",active; positive
same,carcinogen call,"Species: HAMSTER, Strain/Sex: SYRIAN/MALE, Route: INTRAPERITONEAL, Dose: 0, 0.5 MG IN 0.2 ML OF SALINE 1/WK FOR 26 WK (STUDY DURATION: 48 WK), Tumor Site: Type of Lesion: LUNG: ADENOCARCINOMA, HEMATOPOIETIC SYSTEM: LEUKEMIA",active; positive
same,carcinogen call,"Species: MOUSE, Strain/Sex: BALB/MALE, Route: SUBCUTANEOUS, Dose: 0, 0.1 MG IN DMSO 1/WK FOR 20 WK (STUDY DURATION: 60 WK), Tumor Site: Type of Lesion: INJECTION SITE: TUMOR",active; positive
same,carcinogen call,"Species: RAT, Strain/Sex: F344/MALE, Route: SUBCUTANEOUS, Dose: 0, 0.2 MG 2/WK FOR 10 WK (STUDY DURATION: 320 D), Tumor Site: Type of Lesion: INJECTION SITE: SARCOMA",active; positive
same,carcinogen call,"Species: RAT, Strain/Sex: F344/NS1C/MALE, Route: PULMONARY IMPLANT, Dose: 0, 0.003, 0.01, 0.03, 0.1, 0.15 MG AS A SUSPENSION IN EQUAL VOL OF BEESWAX AND TRICAPRYLIN IMPLANTED IN LEFT LUNG (STUDY, Dose: 0, 0.003, 0.01, 0.03, 0.1, 0.15 MG AS A SUSPENSION IN EQUAL VOL OF BEESWAX AND TRICAPRYLIN IMPLANTED IN LEFT LUNG (STUDY, Tumor Site: Type of Lesion: LUNG: TUMOR",active; positive
same,carcinogen call,"Species: RAT, Strain/Sex: STRAIN CD/FEMALE, Route: INTRAGASTRIC, Dose: 0, 10 UMOL IN DMSO 3/WK FOR 4 WK (TOTAL DOSE: 16 UMOL/RAT) (STUDY DURATION: 78 WK), Tumor Site: Type of Lesion: PITUITARY GLAND: CARCINOMA",active; positive
same,carcinogen call,"Species: RAT, Strain/Sex: STRAIN CD/FEMALE, Route: INTRAPERITONEAL, Dose: 0, 10 UMOL IN DMSO 3/WK FOR 4 WK (TOTAL DOSE; 16 UMOL/RAT) (STUDY DURATION; 78 WK), Dose: 0, 10 UMOL IN DMSO 3/WK FOR 4 WK (TOTAL DOSE; 16 UMOL/RAT) (STUDY DURATION; 78 WK), Tumor Site: Type of Lesion: HEMATOPOIETIC SYSTEM: HISTIOCYTOMA",active; positive
same,carcinogen call,"Species: RAT, Strain/Sex: STRAIN-CD/FEMALE, Route: SUBCUTANEOUS, Dose: 0, 6.3 UMOL (TOTAL DOSE) ADMINISTERED OVER 8 WK BEGINNING ON DAY OF BIRTH (STUDY DURATION: 67 WK), Tumor Site: Type of Lesion: INTEGUMENTARY SYSTEM: MALIGNANT FIBROUS HISTIOCYTOMA, HEMATOPOIETIC SYSTEM: LEUKEMIA",active; positive
CCCCCCCCCCCCCC(=O)O[C@@H]1[C@@H](C)[C@@]2(O)[C@@H](C=C(CO)C[C@]3(O)C(=O)C(C)=C[C@@H]23)[C@@H]2C(C)(C)[C@]12OC(C)=O,carcinogen call,"Species: MOUSE, Strain/Sex: BALB/MALE, FEMALE, Route: DERMAL, Dose: 0, 18 NMOL IN ACETONE 1/WK FOR 17 MO (STUDY DURATION: 24 MO), Tumor Site: Type of Lesion: SKIN: SQUAMOUS CELL PAPILLOMA",active; positive
same,carcinogen call,"Species: MOUSE, Strain/Sex: HR-HR/MALE, FEMALE, Route: DERMAL, Dose: 0, 18 NMOL IN ACETONE 1/WK FOR 18 MO (STUDY DURATION: 24 MO)",inactive; negative
same,carcinogen call,"Species: MOUSE, Strain/Sex: HR/HR/MALE, FEMALE, Route: DERMAL, Dose: 0, 20, 40, 100, 1000, 1200, 1394 NMOL TOTAL DOSE WITH RESPECTIVE ADMINISTRATIONS OF 20 NMOL ONCE, 2 NMOL TWICE, 20 NMOL, Dose: 0, 20, 40, 100, 1000, 1200, 1394 NMOL TOTAL DOSE WITH RESPECTIVE ADMINISTRATIONS OF 20 NMOL ONCE, 2 NMOL TWICE, 20 NMOL, Tumor Site: Type of Lesion: SKIN: TUMOR",active; positive
CCN=c1cc2oc3cc(NCC)c(C)cc3c(-c3ccccc3C(=O)OCC)c-2cc1C,carcinogen call,"Species: MOUSE, Strain/Sex: B6C3F1/FEMALE, Route: ORAL, Dose: 0, 500, 1000 PPM IN FEED FOR 103 WK (STUDY DURATION: 105 WK), Dose: 0, 500, 1000 PPM IN FEED FOR 103 WK (STUDY DURATION: 105 WK)",inactive; negative
same,carcinogen call,"Species: MOUSE, Strain/Sex: B6C3F1/MALE, Route: ORAL, Dose: 0, 1000, 2000 PPM IN FEED FOR 103 WK (STUDY DURATION: 105 WK), Dose: 0, 1000, 2000 PPM IN FEED FOR 103 WK (STUDY DURATION: 105 WK)",inactive; negative
same,carcinogen call,"Species: RAT, Strain/Sex: F344/FEMALE, Route: ORAL, Dose: 0, 120, 250 PPM IN FEED FOR 103 WK (STUDY DURATION: 105 WK), Dose: 0, 120, 250 PPM IN FEED FOR 103 WK (STUDY DURATION: 105 WK), Tumor Site: Type of Lesion: ADRENAL GLAND: PHEOCHROMOCYTOMA OR MALIGNANT PHEOCHROMOCYTOMA",equivocal
same,carcinogen call,"Species: RAT, Strain/Sex: F344/MALE, Route: ORAL, Dose: 0, 120, 250 PPM IN FEED FOR 103 WK (STUDY DURATION: 105 WK), Dose: 0, 120, 250 PPM IN FEED FOR 103 WK (STUDY DURATION: 105 WK), Tumor Site: Type of Lesion: INTEGUMENTARY SYSTEM: KERATOACANTHOMA",equivocal
CCO,carcinogen call,"Species: MOUSE, Strain/Sex: B6C3F1/FEMALE (48/GROUP), Route: ORAL, Dose: 2.5% OR 5% IN DRINKING WATER (STUDY DURATION: 2 YRS)",inactive; negative; inadequate study to determine carcinogenic activity
same,carcinogen call,"Species: MOUSE, Strain/Sex: B6C3F1/MALE (48/GROUP), Route: ORAL, Dose: 2.5% OR 5% IN DRINKING WATER (STUDY DURATION: 2 YRS), Tumor Site: Type of Lesion: LIVER: HEPATOCELLULAR ADENOMA OR CARCINOMA (COMBINED)",active; positive; inadequate study to determine carcinogenic activity
same,carcinogen call,"Species: RAT, Strain/Sex: SPRAGUE-DAWLEY/FEMALE, Route: ORAL, Dose: 0, 1, 3% IN LIQUID DIET FOR 104 WK (STUDY DURATION: 120 WK), Dose: 0, 1, 3% IN LIQUID DIET FOR 104 WK (STUDY DURATION: 120 WK)",inactive; negative
same,carcinogen call,"Species: RAT, Strain/Sex: SPRAGUE-DAWLEY/MALE, Route: ORAL, Dose: 0, 1, 3% IN LIQUID DIET FOR 104 WK (STUDY DURATION: 120 WK), Dose: 0, 1, 3% IN LIQUID DIET FOR 104 WK (STUDY DURATION: 120 WK)",inactive; negative
O[C@H]1C=Cc2ccc3cc4ccccc4nc3c2[C@@H]1O,carcinogen call,"Species: MOUSE, Strain/Sex: SWISS/FEMALE, Route: INTRAPERITONEAL, Dose: 0, 1.05 UMOL GIVEN AS 150 NMOL IN 5 µL DMSO WITHIN 24 HR OF BIRTH, 300 NMOL IN 10 µL DMSO ON D 8 OF LIFE, AND 600 NMOL I",inactive; negative
same,carcinogen call,"Species: MOUSE, Strain/Sex: SWISS/MALE, Route: INTRAPERITONEAL, Dose: 0, 1.05 UMOL GIVEN AS 150 NMOL IN 5 µL DMSO WITHIN 24 HR OF BIRTH, 300 NMOL IN 10 µL DMSO ON D 8 OF LIFE, AND 600 NMOL I",inactive; negative
COC(=O)C(c1ccccc1)C1CCCCN1 (stereo unspecified),carcinogen call,"Species: MOUSE, Strain/Sex: B6C3F1/FEMALE, Route: ORAL, Dose: 0, 50, 250, 500 PPM IN DIET FOR 2 YR (STUDY DURATION: 2 YR), Dose: 0, 50, 250, 500 PPM IN DIET FOR 2 YR (STUDY DURATION: 2 YR), Tumor Site: Type of Lesion: LIVER: HEPATOCELLULAR ADENOMA",active; positive
same,carcinogen call,"Species: MOUSE, Strain/Sex: B6C3F1/MALE, Route: ORAL, Dose: 0, 50, 250, 500 PPM IN DIET FOR 2 YR (STUDY DURATION: 2 YR), Dose: 0, 50, 250, 500 PPM IN DIET FOR 2 YR (STUDY DURATION: 2 YR), Tumor Site: Type of Lesion: LIVER: HEPATOCELLULAR ADENOMA, HEPATOBLASTOMA",active; positive
same,carcinogen call,"Species: RAT, Strain/Sex: F344/FEMALE, Route: ORAL, Dose: 0, 100, 500, 1000 PPM IN DIET FOR 2 YR (STUDY DURATION: 2 YR), Dose: 0, 100, 500, 1000 PPM IN DIET FOR 2 YR (STUDY DURATION: 2 YR)",inactive; negative
same,carcinogen call,"Species: RAT, Strain/Sex: F344/MALE, Route: ORAL, Dose: 0, 100, 500, 1000 PPM IN DIET FOR 2 YR (STUDY DURATION: 2 YR), Dose: 0, 100, 500, 1000 PPM IN DIET FOR 2 YR (STUDY DURATION: 2 YR)",inactive; negative
CN1CCC[C@H]1c1cccnc1,carcinogen call,"Species: RAT, Strain/Sex: F344/FEMALE, Route: INHALATION, Dose: 0, 500 UG/M3 20 HR/D 5 D/WK FOR 2 YR (STUDY DURATION: 2 YR)",inactive; negative
